Laboratory results reported in US6828315B1, “1-Amino triazoloc4,3-a! quinazoline-5-ones and/or -5-thiones inhibiting phosphodiesterase IV” (Warner-Lambert LLC, priority 1999, dated 2004).

## N#Cc1ccc2c(c1)c(=O)n(Cc1ccccc1)c1nnc(N3CCCC3)n21 [Compound 197, 4-Benzyl-5-oxo-1-pyrrolidin-1-yl-4,5-dihydro-[1,2,4]triazolo[4,3-a]quinazoline-7-carbonitrile]
  melting point: 219 °C

## O=c1c2cc(Br)ccc2n2c(N3CCCCCC3)nnc2n1CC=Cc1ccc(Cl)cc1 [Compound 38, 1-Azepan-1-yl-7-bromo-4-[3-(4-chloro-phenyl)-allyl]-4H-[1,2,4]triazolo[4,3-a]quinazolin-5-one]
  melting point: 176 °C

## CN(C)c1nnc2n(Cc3ccccc3)c(=O)c3cc(Br)ccc3n12 [Compound 179, 4-Benzyl-7-bromo-1-dimethylamino-4H-[1,2,4]triazolo[4,3-a]quinazolin-5-one]
  melting point: 171 °C

## O=c1c2cc(Cl)ccc2n2c(N3CCCCCC3)nnc2n1Cc1ccccn1 [Compound 21, 1-(azepan-1-yl)-7-chloro-4-(2-pyridylmethyl)-4H-[1,2,4]triazolo[4,3-a]quinazolin-5-one]
  melting point: 152 °C

## Cn1c(=O)c2cc(Cl)ccc2n2c(N3CCc4ccccc4C3)nnc12 [Compound 209, 7-chloro-1-(3,4-dihydro-1H-isoquinolin-2-yl)-4-methyl-4H-[1,2,4]triazolo[4,3-a]quinazolin-5-one]
  melting point: 272 °C

## COc1ccc2c(c1)c(=O)n(Cc1ccccc1)c1nnc(N3CCCCCC3)n21 [Compound 195, 1-Azepan-1-yl-4-benzyl-7-methoxy-4H-[1,2,4]triazolo[4,3-a]quinazolin-5-one]
  melting point: 153 °C

## Cn1c(=O)c2cc(Cl)ccc2n2c(N3CCCCC3)nnc12 [Compound 168, 7-chloro-4-methyl-1-(piperidin-1-yl)4H-[1,2,4]triazolo[4,3-a]-quinazolin-5-one]
  melting point: 192 °C

## O=c1c2cc(Cl)ccc2n2c(N3CCCC3)nnc2n1Cc1cccnc1 [Compound 31, 7-Chloro-4-pyridin-3-ylmethyl-1-pyrrolidin-1-yl-4H-[1,2,4]triazolo[4,3-a]quinazolin-5-one]
  melting point: 176 °C

## O=c1nc2n(CCCc3ccccc3)nc(N3CCCCCC3)n2c2ccc(Cl)cc12 [Compound 129, 1-(azepan-1-yl)-7-chloro-3-(3-phenylpropyl)-3H-[1,2,4]triazolo[4,3-a]quinazolin-5-one]
  melting point: 130 °C

## COC(=O)C(c1ccccc1)n1c(=O)c2cc(Br)ccc2n2c(N(C)C)nnc12 (stereo not drawn) [Compound 90, (7-Bromo-1-dimethylamino-5-oxo-5H-[1,2,4]triazolo[4,3-a]quinazolin-4-yl)-phenyl-acetic acid methyl ester]
  melting point: 243 °C

## O=c1c2cc(Br)ccc2n2c(N3CCOCC3)nnc2n1Cc1ccccc1 [Compound 180, 4-Benzyl-7-bromo-1-morpholin-4-yl-4H-[1,2,4]triazolo[4,3-a]quinazolin-5-one]
  melting point: 189 °C

## COC(=O)c1ccc(Cn2nc(N3CCCC3)n3c4ccc(Br)cc4c(=O)nc23)cc1 [Compound 145, 4-(7-bromo-5-oxo-1-(pyrrolidin-1-yl)-5H-[1,2,4]triazolo[4,3-a]-quinazolin-3-ylmethyl)benzoic acid methyl ester]
  melting point: 193 °C

## Cn1c(=O)c2c(Cl)cccc2n2c(N3CCCCCC3)nnc12 [Compound 202, 1-(azepan-1-yl)-6-chloro-4-methyl-4H-[1,2,4]triazolo[4,3-a]-quinazolin-5-one]
  melting point: > 275 °C

## O=c1c2cc(Br)ccc2n2c(N3CCCC3)nnc2n1CC(F)(F)F [Compound 67, 7-Bromo-1-pyrrolidin-1-yl-4-(2,2,2-trifluoro-ethyl)-4H-[1,2,4]triazolo[4,3-a]quinazolin-5-one]
  melting point: 202 °C

## O=c1c2cc(Br)ccc2n2c(N3CCCC3)nnc2n1CCOc1ccccc1 [Compound 71, 7-Bromo-4-(2-phenoxy-ethyl)-1-pyrrolidin-1-yl-4H-[1,2,4]triazolo[4,3-a]quinazolin-5-one]
  melting point: 171 °C

## COc1ccc(CCn2nc(N3CCCCCC3)n3c4ccc(Cl)cc4c(=O)nc23)cc1 [Compound 128, 1-(azepan-1-yl)-7-chloro-3-[2-(4-methoxyphenyl)ethyl)-3H-[1,2,4]triazolo[4,3-a]quinazolin-5-one]
  melting point: 196 °C

## O=c1c2cc(Br)ccc2n2c(N3CCCCCC3)nnc2n1Cc1cccnc1 [Compound 36, 1-(azepan-1-yl)-7-bromo-4-(3-pyridinylmethyl)-4H-[1,2,4]triazolo[4,3-a]quinazolin-5-one]
  melting point: 180 °C

## O=c1c2cc(Br)ccc2n2c(N3CCCC3)nnc2n1Cc1c[nH]cn1 [Compound 63, 7-Bromo-4-(1H-imidazol-4-ylmethyl)-1-pyrrolidin-1-yl-4H-[1,2,4]triazolo[4,3-a]quinazolin-5-one]
  melting point: 290 °C (dec.)

## COC(=O)c1cc(C(=O)Cn2nc(N3CCCCCC3)n3c4ccc(Cl)cc4c(=O)nc23)ccc1OC [Compound 133, 5-[(1-(azepan-1-yl)-7-chloro-5-oxo-5H-[1,2,4]triazolo[4,3-a]-quinazolin-3-yl)acetyl]-2-methoxybenzoic acid methyl ester]
  melting point: 136 °C

## O=c1c2cc(Cl)ccc2n2c(N3CCCCCC3)nnc2n1Cc1cccc(Cl)c1 [Compound 10, 1-(azepan-1-yl)-7-chloro-4-(3-chlorobenzyl)-4H-[1,2,4]triazolo[4,3-a]quinazolin-5-one]
  melting point: 157 °C

## Cn1c(=O)c2cc(F)ccc2n2c(N3CCCCCC3)nnc12 [Compound 212, 1-(azepan-1-yl)-7-fluoro-4-methyl-4H-[1,2,4]triazolo[4,3-a]-quinazolin-5-one]
  melting point: 136 °C

## O=c1c2cc(Cl)ccc2n2c(N3CCCCC3)nnc2n1Cc1ccccc1 [Compound 174, 4-benzyl-7-chloro-1-(piperidin-1-yl)-4H-[1,2,4]triazolo[4,3-a]-quinazolin-5-one]
  melting point: 178 °C

## COc1cc(Cn2c(=O)c3cc(Br)ccc3n3c(N4CCCC4)nnc23)cc(OC)c1OC [Compound 55, 7-Bromo-1-pyrrolidin-1-yl-4-(3,4,5-trimethoxy-benzyl)-4H-[1,2,4]triazolo[4,3-a]quinazolin-5-one]
  melting point: 141 to 143 °C

## O=c1c2ccccc2n2c(N3CCCCCC3)nnc2n1CC=Cc1ccccc1 [Compound 6, 1-Azepan-1-yl-4-(3-phenyl-allyl)-4H-[1,2,4]triazolo[4,3-a]quinazolin-5-one]
  melting point: 144 °C

## CN(C)c1nn(Cc2ccc(O)cc2)c2nc(=O)c3cc(Br)ccc3n12 [Compound 148, 7-Bromo-1-dimethylamino-3-(4-hydroxy-benzyl)-3H-[1,2,4)triazolo[4,3-a]quinazolin-5-one]
  melting point: 283 °C

## O=c1nc2n(Cc3ccccc3Cl)nc(N3CCCCCC3)n2c2ccc(Cl)cc12 [Compound 113, 1-(azepan-1-yl)-7-chloro-3-(2-chlorobenzyl)-3H-[1,2,4]triazolo[4,3-a]quinazolin-5-one]
  melting point: 228 °C

## Cn1c(=O)c2cc(Cl)ccc2n2c(N3CCOCC3)nnc12 [Compound 206, 7-chloro-4-methyl-1-(morpholin-4-yl)-4H-[1,2,4]triazolo[4,3-a]-quinazolin-5-one]
  melting point: 232 °C

## Cn1c(=O)c2cc(Cl)ccc2n2c(N3CC4CCC(C)(C3)C4(C)C)nnc12 (stereo not drawn) [Compound 170, 7-Chloro-4-methyl-1-(1,8,8-trimethyl-3-aza-bicyclo[3.2.1]oct-3-yl)-4H-[1,2,4]triazolo[4,3-a]quinazolin-5-one]
  melting point: 185 °C

## COc1ccc(C=CCn2c(=O)c3cc(Br)ccc3n3c(N4CCCCCC4)nnc23)cc1 [Compound 39, 1-Azepan-1-yl-7-bromo-4-[3-(4-methoxy-phenyl)-allyl]-4H-[1,2,4]triazolo[4,3-a]quinazolin-5-one]
  melting point: 129 °C

## O=c1c2cc(Br)ccc2n2c(N3CCN(c4ccccc4)CC3)nnc2n1Cc1ccccc1 [Compound 183, 4-Benzyl-7-bromo-1-(4-phenyl-piperazin-1-yl)-4H-[1,2,4]triazolo[4,3-a]quinazolin-5-one]
  melting point: 238 °C

## O=c1c2cc(Cl)ccc2n2c(N3CCCCCC3)nnc2n1Cc1ccncc1 [Compound 23, 1-(azepan-1-yl)-7-chloro-4-(4-pyridylmethyl)-4H-[1,2,4]triazolo[4,3-a]quinazolin-5-one]
  melting point: 137 °C

## O=C(O)Cc1ccc(Cn2c(=O)c3cc(Br)ccc3n3c(N4CCCC4)nnc23)cc1 [Compound 56, [4-(7-Bromo-5-oxo-1-pyrrolidin-1-yl-5H-[1,2,4]triazolo[4,3-a]quinazolin-4-ylmethyl)-phenyl]-acetic acid]
  melting point: 260 °C

## O=c1nc2n(Cc3ccc(F)cc3)nc(N3CCCCCC3)n2c2ccc(Br)cc12 [Compound 135, 1-(azepan-1-yl)-7-bromo-3-(4-fluorobenzyl)-3H-[1,2,4]triazolo[4,3-a]quinazolin-5-one]
  melting point: 216 °C

## CNc1nnc2n(Cc3ccccc3)c(=O)c3cc(Br)ccc3n12 [Compound 188, 4-Benzyl-7-bromo-1-methylamino-4H-[1,2,4]triazolo[4,3-a]quinazolin-5-one]
  melting point: 238 °C

## O=c1nc2n(Cc3ccc(C(F)(F)F)cc3)nc(N3CCCCCC3)n2c2ccc(Cl)cc12 [Compound 118, 1-(azepan-1-yl)-7-chloro-3-(4-(trifluoromethyl)benzyl)-3H-[1,2,4]triazolo[4,3-a]quinazolin-5-one]
  melting point: 232 °C

## Nc1ccc2c(c1)c(=O)n(Cc1ccccc1)c1nnc(N3CCCC3)n21 [Compound 225, 7-Amino-4-benzyl-1-pyrrolidin-1-yl-4H-[1,2,4]triazolo[4,3-a]quinazolin-5-one]
  melting point: 230 °C

## C=CCn1nc(N2CCCCCC2)n2c3ccc(Cl)cc3c(=O)nc12 [Compound 110, 3-Allyl-1-azepan-1-yl-7-chloro-3H-[1,2,4]triazolo[4,3-a]quinazolin-5-one]
  melting point: 173 °C

## CN(C)c1nn(CC=Cc2ccccc2)c2nc(=O)c3cc(Br)ccc3n12 [Compound 155, 7-Bromo-1-dimethylamino-3-(3-phenyl-allyl)-3H-[1,2,4]triazolo[4,3-a]quinazolin-5-one]
  melting point: 206 °C

## Cc1ccc2c(c1)c(=O)n(CC=Cc1cccnc1)c1nnc(N3CCSCC3)n21 [Compound 100, 7-Methyl-4-(3-pyridin-3-yl-allyl)-1-thiomorpholin-4-yl-4H-[1,2,4]triazolo[4,3-a]quinazolin-5-one]
  melting point: 230 °C
